For test [1], the system named is primary hippocampal neurons. The test can be described thus: Excitotoxicity in dispersed primary hippocampal cultures (MTT cell survival). Type of test: cell-based, Sprague Dawley rat.
In test [2] the test system is organotypic hippocampal slice cultures, hippocampal CA1 region. The experiment in a line: Oxygen/glucose deprivation of hippocampal organotypic slice cultures (PI staining). Type of test: cell-based, Lister Hooded rat.
In a further test the test system is HCN channels. The conditions noted are these: non use-dependent; cited from earlier work.
The test system of another test is NMDA receptor. Format: cell-based.
Test [3] concerns voltage-gated Ca2+ channel. The test can be described thus: Selectivity: voltage-gated Ca2+ channel activation. The conditions noted are these: 100 μM. Format: cell-based.
The test system of the next test is SCN neurones. The test can be described thus: Suprachiasmatic nucleus slices, extracellular single unit recordings. Format: cell-based, rat. The conditions noted are these: 10-100 μM; all neurones tested. The procedure: Supraachiasmatic nucleus slices were prepared from 4-6 week old rats that had been sacrificed by cervical dislocation and subsequent decapitation in accordance with UK Home Office guidelines. The brain was removed rapidly and SCN slices prepared by cutting 400 μm thick coronal sections through the whole brain minus the cerebellum using a vibroslicer (Campden Instruments, Loughborough, UK). The resultant SCN slices were placed in a warmed (32-34° C.) submersion recording chamber perfused at 1-2 ml.min^−1 with an oxygen-enriched (95% O2, 5% CO2) artificial cerebrospinal fluid (aCSF) comprised of (mM): NaCl, 124; KCl, 3; NaHCO3, 26; NaH2PO4, 1.25; CaCl2, 2; MgSO4, 1; D-glucose, 10. Extracellular single unit recordings were made using glass microelectrodes (24 MΩ) filled with aCSF placed in the SCN.

For the next test, the system named is Ih. The experiment in a line: Whole-cell patch-clamp detection of Ih in neurones from both culture models. Format: cell-based, rat. A general note: Patch clamp records ionic current or voltage across a cell membrane.
The test system of test [4] is voltage-gated Na+ and K+ channels. The test can be described thus: Selectivity: action potential firing. The following applies: 100 μM. Format: cell-based.
In another test the test system is hippocampal cultures. The test can be described thus: Spontaneous synaptic activity and membrane potential in hippocampal cultures, Mg2+-free insult. Type of test: cell-based, rat. The following applies: 100 μM; applied before, during or after the Mg2+-free insult. The procedure: When Mg^2+ containing medium was reinstated 15 mins later there was a sustained increase in spontaneous activity above that recorded prior to the Mg^2+ free challenge. No change in the magnitude of the Ih current was recorded during or after the Mg^2+ free challenge. […] This reduction in activity differed from that induced by the NMDA receptor antagonist AP5 in that the frequency of activity in the presence of ZD7288 was much lower, yet individual events were much larger, than that observed in AP5.

The subject of a further test is hippocampal slices. The test can be described thus: Epileptiform bursting activity in hippocampal slices (field recordings, area CA3). Type of test: cell-based, rat. The following applies: irrespective of model: bicuculline, Mg2+-free, 4-AP, Ca2+-free/elevated K+. The procedure: Hippocampal slices were prepared from 4-6 week old rats that had been sacrificed by cervical dislocation and subsequent decapitation in accordance with UK Home Office guidelines. The brain was removed rapidly and hippocampal slices prepared by cutting 400 μm thick horizontal sections through the whole brain minus the cerebellum using a vibroslicer (Campden Instruments, Loughborough, UK). The hippocampus from these sections was dissected free from the surrounding brain regions and the resultant hippocampal slices placed on a nylon mesh at the interface of a warmed (32-34° C.), perfusing (1-2 ml.min^−1) artificial cerebrospinal fluid (aCSF) and an oxygen-enriched (95% O2, 5% CO2), humidified atmosphere. The standard perfusion medium comprised (mM): NaCl, 124; KCl, 3; NaHCO3, 26; NaH2PO4, 1.25; CaCl2, 2; MgSO4, 1; D-glucose, 10; and was bubbled with 95% O2, 5% CO2. Extracellular field potential recordings were made using glass microelectrodes (24 MΩ) filled with aCSF placed in stratum pyramidale in area CA3. […] Non synaptic field bursting activity (that is relevant to both epilepsy and migraine) was induced by removal of extracellular Ca^2+ and elevation of extracellular K^+ from 3 mM to 6-8 mM (FIG. 12).

The subject of test [5] is metabotropic glutamate receptor. The test can be described thus: Selectivity: metabotropic glutamate receptor activation. Type of test: cell-based. The conditions noted are these: 100 μM.

Read-outs that look alike come from different tables or passages of the source.

The text below walks through data of patent US20040033943A1, “Hcn polypeptides and polynucleotides and their use in therapy” (priority 2000, published 2004).

As to `C[C@]12N[C@H](Cc3ccccc31)c1ccccc12` [MK-801], the “NEURONAL SURVIVAL (%)” value in test [1] is 101 ± 1.2%. Further, in test [2], the “DAMAGE (% Cell Loss)” value was found to be 34.90 ± 15.99%.
What is called IC50 is the point on the concentration scale where inhibition reaches its midpoint. Consider `CCN(c1ccccc1)c1cc(=NC)n(C)c(C)n1.Cl` [ZD7288, N-ethyl-1,6-dihydro-1,2-dimethyl-6-(methylimino)-N-phenyl-4-pyrimidinamine hydrochloride], for which the “concentration range inhibiting HCN channels” value with HCN channels is 1 to 300 µM. In addition, the “NEURONAL SURVIVAL (%)” value in test [1] (1 μM, added 30 minutes before, during, and for 24 h after the insult) is 40.6 ± 4.9%; in test [1] (3 μM, added 30 minutes before, during, and for 24 h after the insult), 40.1 ± 8.1%; in test [1] (10 μM, added 30 minutes before, during, and for 24 h after the insult) it was 48.4 ± 5.5%; in test [1] (30 μM, added 30 minutes before, during, and for 24 h after the insult), 56.7 ± 2.0%; in test [1] (100 μM, added 30 minutes before, during, and for 24 h after the insult), 65.9 ± 3.7%; in test [1] (100 μM, added during the 24 h recovery period only), 78.0 ± 5.5%. Also, the “NEURONAL SURVIVAL (%)” value worked out at 79.5 ± 2.1% in test [1] (100 μM, added during the insult only); 88.5 ± 2.7% in test [1] (300 μM, added 30 minutes before, during, and for 24 h after the insult); 101.0 ± 1.2% in test [1] (300 μM, added during the 24 h recovery period only); 97.9 ± 9.6% in test [1] (300 μM, added during the insult only). In [1] (FIG. 4), the “delay of application after the insult without loss of neuroprotective efficacy” value is given as “up to 60 minutes”. In test [1] (Rattus norvegicus, Hippocampal neuron, hippocampal neurones, read-out: IC50 for inhibition of damage), the 50% inhibitory concentration (IC50) was about 120 µM. The “direct effects on NMDA receptor activation” value with NMDA receptor is recorded as “no direct effects”. The “DAMAGE (% Cell Loss)” value in test [2] (100 nM, added 60 minutes before, during, and for 24 h after the insult) is 64.01 ± 4.66%; in test [2] (300 nM, added 60 minutes before, during, and for 24 h after the insult), 15.12 ± 9.54%; in test [2] (1 μM, added 60 minutes before, during, and for 24 h after the insult) it was 0.72 ± 0.44%; in [2] (10 μM, added 60 minutes before, during, and for 24 h after the insult), 4.58 ± 3.09%; in test [2] (100 μM, added immediately after the insult and for the 24 h recovery period only), 12.50 ± 8.24%. Further, the neuroprotection result in test [2] (applied immediately after oxygen glucose deprivation, FIG. 3) was “neuroprotection was still observed”. The “electrophysiological responses in stratum pyramidale and stratum radiatum of area CA1” value in test [2] (treated slices subjected to OGD, single-shock electrical stimulation in stratum radiatum, FIG. 3) is “possible to evoke normal electrophysiological responses”. Moreover, the “direct effects on voltage-gated Ca2+ channel activation” value in [3] is “no direct effects”. Also, in the test on SCN neurones, the “effect on frequency of single unit firing” value was “concentration dependent reduction”. Also, the “block of Ih” value with Ih (100 μM) is listed as “almost completely blocked”. Moreover, the “inhibition of hyperpolarization-activated current (Ih)” value in the test with Ih (0.1-100 μM) is recorded as “inhibited”. Further, in [4], the “direct effects on action potential firing (activation of voltage-gated Na+ and K+ channels)” value is “no direct effects”. Further, in the test with hippocampal cultures, the “effect on membrane potential / current” value was “induced a membrane potential hyperpolarization/outward current”. Moreover, the “effect on spontaneous activity” value with hippocampal cultures is “reduced spontaneous activity”. For the same molecule, the “effect on epileptiform bursting activity” value in the test with hippocampal slices was “concentration dependent inhibition”. Also, the “direct effects on metabotropic glutamate receptor activation” value in test [5] is listed as “no direct effects”.
